Laboratory results: paper PMC5404925, “Variation in olfactory neuron repertoires is genetically controlled and environmentally modulated” (eLife, 2017)

Columns and labels:
Olfr347 = molecular target: T1, Olfr347 (Mus musculus, UniProt Q8VGK2); assay: CRE-luciferase reporter dose-response (Dual-Glo); type: cell-based; settings: agonist; 1 nM to 1 mM, 4 h stimulation; RTP1S and M3-R co-expressed; Hana3A cells
T1 construct: gene Or1j18; full-length OR, probably N-terminal RHO tag (tag-only control), in HEK293T-derived Hana3A cells with RTP1S and M3-R
T1 sequence (Q8VGK2 1-312): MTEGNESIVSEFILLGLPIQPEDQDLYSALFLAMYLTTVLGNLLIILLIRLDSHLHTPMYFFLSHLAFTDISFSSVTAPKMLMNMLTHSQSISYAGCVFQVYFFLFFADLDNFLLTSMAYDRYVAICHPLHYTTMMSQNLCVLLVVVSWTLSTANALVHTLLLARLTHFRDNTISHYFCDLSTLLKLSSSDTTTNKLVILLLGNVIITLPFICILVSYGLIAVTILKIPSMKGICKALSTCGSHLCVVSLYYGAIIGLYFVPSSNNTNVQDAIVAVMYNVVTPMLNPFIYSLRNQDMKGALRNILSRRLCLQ

Olfr538 = molecular target: T2, Olfr538 (Mus musculus, UniProt Q7TRT5); assay: CRE-luciferase reporter dose-response (Dual-Glo); type: cell-based; settings: agonist; 1 nM to 1 mM, 4 h stimulation; RTP1S and M3-R co-expressed; Hana3A cells
T2 construct: gene Or13a24; full-length OR, probably N-terminal RHO tag (tag-only control), in HEK293T-derived Hana3A cells with RTP1S and M3-R
T2 sequence (Q7TRT5 1-310): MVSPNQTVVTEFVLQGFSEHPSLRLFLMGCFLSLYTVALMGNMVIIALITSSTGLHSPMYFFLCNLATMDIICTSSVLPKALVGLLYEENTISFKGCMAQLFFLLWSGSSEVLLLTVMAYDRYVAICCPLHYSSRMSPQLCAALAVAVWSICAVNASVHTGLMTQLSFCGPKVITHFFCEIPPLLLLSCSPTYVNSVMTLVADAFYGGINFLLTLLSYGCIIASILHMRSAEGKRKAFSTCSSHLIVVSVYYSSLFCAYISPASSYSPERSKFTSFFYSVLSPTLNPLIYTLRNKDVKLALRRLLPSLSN

Structure (SMILES): C=C(C)[C@@H]1CC=C(C)C(=O)C1 [(R)-carvone]
- CRE-luciferase reporter dose-response (Dual-Glo) (Olfr347): Dose-response curve for HEK293 cells expressing Olfr347 (black) challenged with increasing concentrations of (R)-carvone
- CRE-luciferase reporter dose-response (Dual-Glo) (Olfr538): Olfr538 displayed a dose-dependent response to (R)-carvone
